In patent publication US11339130B1 (Blade Therapeutics, Inc., priority 2016, dated 2022):
Read-outs that look alike come from different tables or passages of the source.

What was measured:
[1] = system: Calpain activity in SH-SY5Y cells; experiment: SH-SY5Y + AMC fluorescence assay (Suc-LLVY-AMC substrate); type: cell-based; conditions: read-out: SH-SY5Y + AMC IC50
Human Calpain 2/NS1 = target: T1, Human Calpain 2/NS1 (Homo sapiens, UniProt P17655); experiment: Calpain inhibition continuous fluorescence (FRET) assay, Human Calpain 2/NS1; type: biochemical; conditions: read-out: Human Calpain 2/NS1 IC50
T1 sequence (P17655 1-700): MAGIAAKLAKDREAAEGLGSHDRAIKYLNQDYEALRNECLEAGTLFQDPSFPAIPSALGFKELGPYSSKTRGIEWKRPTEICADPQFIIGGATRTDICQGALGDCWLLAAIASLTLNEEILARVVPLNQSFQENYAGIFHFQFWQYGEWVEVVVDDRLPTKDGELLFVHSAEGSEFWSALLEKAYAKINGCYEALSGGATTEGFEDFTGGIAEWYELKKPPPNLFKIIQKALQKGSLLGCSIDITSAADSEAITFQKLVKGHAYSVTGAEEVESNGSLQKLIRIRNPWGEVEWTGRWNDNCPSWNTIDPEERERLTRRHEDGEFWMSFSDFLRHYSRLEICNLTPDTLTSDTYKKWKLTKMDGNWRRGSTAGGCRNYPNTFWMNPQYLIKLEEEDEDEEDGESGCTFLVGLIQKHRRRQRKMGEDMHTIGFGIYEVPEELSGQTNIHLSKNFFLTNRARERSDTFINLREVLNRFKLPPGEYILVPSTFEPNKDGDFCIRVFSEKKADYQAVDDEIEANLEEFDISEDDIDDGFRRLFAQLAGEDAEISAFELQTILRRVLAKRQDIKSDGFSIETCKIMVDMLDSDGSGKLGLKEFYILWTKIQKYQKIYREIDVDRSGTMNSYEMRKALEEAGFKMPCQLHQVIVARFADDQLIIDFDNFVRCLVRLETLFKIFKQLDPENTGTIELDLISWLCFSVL
T1 sequence (P04632 1-268 partner): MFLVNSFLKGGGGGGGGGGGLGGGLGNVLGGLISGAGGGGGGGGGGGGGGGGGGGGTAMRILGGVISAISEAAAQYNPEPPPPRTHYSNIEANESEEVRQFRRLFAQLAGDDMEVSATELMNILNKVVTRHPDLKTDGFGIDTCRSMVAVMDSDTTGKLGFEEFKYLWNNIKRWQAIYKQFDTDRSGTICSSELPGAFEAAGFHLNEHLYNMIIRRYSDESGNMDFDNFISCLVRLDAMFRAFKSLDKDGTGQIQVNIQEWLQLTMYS
Procedure, shortened: (§1)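 Inhibitors were preincubated with calpain in 50 mM Tris pH 7.5, 100 mM NaCl, 1 mM DTT at 25C. Reactions were started with 5-FAM/QXL 520 FRET peptide substrate plus CaCl2 and read at 490/520 nm for 10 min. IC50s came from 4-parameter fits of slope rates (1-5 min).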

Human Calpain 1/NS1 = target: T2, Human Calpain 1/NS1 (Homo sapiens, UniProt P07384); experiment: Calpain inhibition continuous fluorescence (FRET) assay, Human Calpain 1/NS1; type: biochemical; conditions: read-out: Human Calpain 1/NS1 IC50
T2 sequence (P07384 1-714): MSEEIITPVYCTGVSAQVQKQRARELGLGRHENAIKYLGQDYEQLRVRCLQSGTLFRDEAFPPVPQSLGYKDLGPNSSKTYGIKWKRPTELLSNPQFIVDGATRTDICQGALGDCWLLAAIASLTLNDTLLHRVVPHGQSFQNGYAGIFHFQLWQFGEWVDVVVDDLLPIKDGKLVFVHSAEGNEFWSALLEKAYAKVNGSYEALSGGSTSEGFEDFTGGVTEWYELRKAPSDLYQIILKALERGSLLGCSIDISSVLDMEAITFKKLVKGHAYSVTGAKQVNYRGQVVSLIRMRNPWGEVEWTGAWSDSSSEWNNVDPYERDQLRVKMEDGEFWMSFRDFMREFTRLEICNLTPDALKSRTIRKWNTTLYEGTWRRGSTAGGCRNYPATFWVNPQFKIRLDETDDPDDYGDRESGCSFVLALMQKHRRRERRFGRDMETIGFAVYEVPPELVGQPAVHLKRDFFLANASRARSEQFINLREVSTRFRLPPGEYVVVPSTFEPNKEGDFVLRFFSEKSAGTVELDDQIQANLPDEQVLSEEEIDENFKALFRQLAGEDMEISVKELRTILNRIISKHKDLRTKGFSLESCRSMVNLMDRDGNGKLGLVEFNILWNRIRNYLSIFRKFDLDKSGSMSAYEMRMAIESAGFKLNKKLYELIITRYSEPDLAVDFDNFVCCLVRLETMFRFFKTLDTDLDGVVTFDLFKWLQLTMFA
T2 sequence (P04632 1-268 partner): T1 sequence (P04632 1-268 partner)
Procedure, shortened: as §1

Human Calpain 9/NS1 = target: T3, Human Calpain 9/NS1 (Homo sapiens, UniProt O14815); experiment: Calpain inhibition continuous fluorescence (FRET) assay, Human Calpain 9/NS1; type: biochemical; conditions: read-out: Human Calpain 9/NS1 IC50
T3 sequence (O14815 1-690): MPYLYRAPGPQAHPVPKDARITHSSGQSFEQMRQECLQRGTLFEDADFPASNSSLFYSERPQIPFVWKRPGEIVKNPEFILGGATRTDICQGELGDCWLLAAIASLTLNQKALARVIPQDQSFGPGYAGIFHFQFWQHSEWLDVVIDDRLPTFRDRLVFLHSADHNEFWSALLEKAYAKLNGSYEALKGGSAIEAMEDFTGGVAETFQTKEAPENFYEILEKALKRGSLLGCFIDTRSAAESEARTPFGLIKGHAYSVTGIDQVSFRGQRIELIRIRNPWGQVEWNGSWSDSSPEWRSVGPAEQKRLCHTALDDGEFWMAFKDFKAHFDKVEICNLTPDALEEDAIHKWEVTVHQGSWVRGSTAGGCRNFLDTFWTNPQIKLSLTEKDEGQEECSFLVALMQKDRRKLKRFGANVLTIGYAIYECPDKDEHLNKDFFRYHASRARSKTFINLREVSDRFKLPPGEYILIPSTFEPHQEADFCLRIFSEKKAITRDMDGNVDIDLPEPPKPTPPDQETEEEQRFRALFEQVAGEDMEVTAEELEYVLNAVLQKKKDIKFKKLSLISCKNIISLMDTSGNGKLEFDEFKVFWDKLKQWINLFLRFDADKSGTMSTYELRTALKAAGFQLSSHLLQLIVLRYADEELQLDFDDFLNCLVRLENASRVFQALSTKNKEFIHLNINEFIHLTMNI
T3 sequence (P04632 1-268 partner): T1 sequence (P04632 1-268 partner)
Procedure, shortened: as §1

SMILES | IC50 ([1]; Column E) [µM] | IC50 (Human Calpain 2/NS1; Column B) [µM] | IC50 (Human Calpain 1/NS1; Column A) [µM] | IC50 (Human Calpain 9/NS1; Column C) [µM] | IC50 [1] [µM] | IC50 (Human Calpain 2/NS1) [µM] | IC50 (Human Calpain 1/NS1) [µM] | IC50 (Human Calpain 9/NS1) [µM]
C[C@@H]1C[C@@H](C(=O)NC(Cc2ccccc2)C(=O)C(N)=O)N(c2ccccc2)C1 (stereo partly drawn) [Compound 292, (2S,4R)—N-(4-amino-3,4-dioxo-1-phenylbutan-2-yl)-4-methyl-1-phenylpyrrolidine-2-carboxamide] | > 25 | < 3 | < 3 | < 3 |  |  |  | 
NC(=O)C(=O)[C@H](Cc1ccccc1)NC(=O)[C@@H]1CCCN1c1ccccc1 [Compound 308, (S)—N—((S)-4-amino-3,4-dioxo-1-phenylbutan-2-yl)-1-phenylpyrrolidine-2-carboxamide] |  |  |  |  | > 25 | < 3 | < 3 | < 3
NC(=O)C(=O)[C@H](Cc1ccccc1)NC(=O)c1conc1-c1cccc(F)c1 [Compound 323, (S)—N-(4-amino-3,4-dioxo-1-phenylbutan-2-yl)-3-(3-fluorophenyl)isoxazole-4-carboxamide] |  |  |  |  | > 25 | < 3 | < 3 | < 3
Cc1nc(-c2ccccc2)c(C(=O)N[C@@H](Cc2ccc(OS(=O)(=O)C(F)(F)F)cc2)C(=O)C(N)=O)o1 [Compound 355] |  |  |  |  | 10 to 25 | < 3 | < 3 | < 3
Cc1ccccc1-c1nc(C(F)(F)F)oc1C(=O)NC(Cc1ccccc1)C(=O)C(N)=O (centres unmarked) [Compound 359, N-(4-amino-3,4-dioxo-1-phenylbutan-2-yl)-4-(o-tolyl)-2-(trifluoromethyl)oxazole-5-carboxamide] |  |  |  |  | 10 to 25 | < 3 | < 3 | < 3
NC(=O)C(=O)C(Cc1ccccc1)NC(=O)[C@@H]1CC2(CC2)CN1c1ccccc1 (stereo partly drawn) [Compound 411, (6S)—N-(4-amino-3,4-dioxo-1-phenylbutan-2-yl)-5-phenyl-5-azaspiro[2.4]heptane-6-carboxamide] |  |  |  |  | 10 to 25 | < 3 | < 3 | < 3
NC(=O)C(=O)C(Cc1ccccc1)NC(=O)c1cn(C2CC2)nc1-c1ccc(C(F)(F)F)nc1 (centres unmarked) [Compound 414, N-(4-amino-3,4-dioxo-1-phenylbutan-2-yl)-1-cyclopropyl-3-(6-(trifluoromethyl)pyridin-3-yl)-1H-pyrazole-4-carboxamide] |  |  |  |  | > 25 | < 3 | < 3 | < 3
Cc1cc(C(=O)NC(Cc2ccccc2)C(O)C(N)=O)n(-c2ccnc(Cl)n2)n1 (centres unmarked) [Compound 434, N-(4-amino-3-hydroxy-4-oxo-1-phenylbutan-2-yl)-1-(2-chloropyrimidin-4-yl)-3-methyl-1H-pyrazole-5-carboxamide] |  |  |  |  | > 25 | > 10 | > 10 | > 10
Cc1nc(C(=O)NC(Cc2ccccc2)C(=O)C(N)=O)c(-c2ccccc2)o1 (centres unmarked) [Compound 494, N-(4-amino-3,4-dioxo-1-phenylbutan-2-yl)-2-methyl-5-phenyloxazole-4-carboxamide] |  |  |  |  | > 25 | < 3 | < 3 | < 3
Cn1cc(C(=O)NC(Cc2ccccc2)C(=O)C(N)=O)c(-c2ccsc2)n1 (centres unmarked) [Compound 503, N-(4-amino-3,4-dioxo-1-phenylbutan-2-yl)-1-methyl-3-(thiophen-3-yl)-1H-pyrazole-4-carboxamide] |  |  |  |  | 10 to 25 | < 3 | < 3 | < 3
COc1ccccc1-c1nn(C)cc1C(=O)NC(Cc1ccccc1)C(=O)C(N)=O (centres unmarked) [Compound 511, N-(4-amino-3,4-dioxo-1-phenylbutan-2-yl)-3-(2-methoxyphenyl)-1-methyl-1H-pyrazole-4-carboxamide] |  |  |  |  | > 25 | < 3 | < 3 | < 3

Next, values leading:

IC50 ([1]; Column E) [µM] | IC50 (Human Calpain 2/NS1; Column B) [µM] | IC50 (Human Calpain 1/NS1; Column A) [µM] | IC50 (Human Calpain 9/NS1; Column C) [µM] | IC50 [1] [µM] | IC50 (Human Calpain 2/NS1) [µM] | IC50 (Human Calpain 1/NS1) [µM] | IC50 (Human Calpain 9/NS1) [µM] | SMILES
 |  |  |  | < 10 | < 3 | < 3 | < 3 | NC(=O)C(=O)[C@H](Cc1ccccc1)NC(=O)c1cc(C(F)(F)F)nn1-c1ccccc1 [Compound 305, (S)—N-(4-amino-3,4-dioxo-1-phenylbutan-2-yl)-1-phenyl-3-(trifluoromethyl)-1H-pyrazole-5-carboxamide]
 |  |  |  | < 10 | 3 to 10 | 3 to 10 | 3 to 10 | NC(=O)C(=O)[C@H](Cc1ccccc1)NC(=O)c1cc(C2CC2)nn1-c1ccccc1 [Compound 306, (S)—N-(4-amino-3,4-dioxo-1-phenylbutan-2-yl)-3-cyclopropyl-1-phenyl-1H-pyrazole-5-carboxamide]
 |  |  |  | < 10 | < 3 | < 3 | < 3 | COCCOCCNC(=O)C(=O)[C@H](Cc1ccccc1)NC(=O)c1cn(C)nc1-c1ccccc1 [Compound 335, (S)—N-(4-((2-(2-methoxyethoxy)ethyl)amino)-3,4-dioxo-1-phenylbutan-2-yl)-1-methyl-3-phenyl-1H-pyrazole-4-carboxamide]
 |  |  |  | < 10 | < 3 | < 3 | < 3 | CNC(=O)CNC(=O)C(=O)[C@H](Cc1ccccc1)NC(=O)c1cn(C)nc1-c1ccccc1 [Compound 336, (S)-1-methyl-N-(4-((2-(methylamino)-2-oxoethyl)amino)-3,4-dioxo-1-phenylbutan-2-yl)-3-phenyl-1H-pyrazole-4-carboxamide]
 |  |  |  | < 10 | < 3 | < 3 | < 3 | Cc1cccc(-c2nsnc2C(=O)NC(Cc2ccccc2)C(=O)C(N)=O)c1F (centres unmarked) [Compound 368, N-(4-amino-3,4-dioxo-1-phenylbutan-2-yl)-4-(2-fluoro-3-methylphenyl)-1,2,5-thiadiazole-3-carboxamide]
 |  |  |  | < 10 | < 3 | < 3 | 3 to 10 | O=C(NC1CC1)C(=O)C(Cc1ccccc1)NC(=O)c1cc(Cl)nn1-c1ncccn1 (centres unmarked) [Compound 457, 3-chloro-N-(4-(cyclopropylamino)-3,4-dioxo-1-phenylbutan-2-yl)-1-(pyrimidin-2-yl)-1H-pyrazole-5-carboxamide]
